Measurements from patent US8841321B2, “Quinoline derivatives as antibacterial agents” (Janssen Pharmaceutica NV, priority 2005, dated 2014).
≈ marks a conversion by molar mass, not a printed value.

Tests used:
[1] = test system: STA 29213 (Staphylococcus aureus (ATCC29213)); assay: Microtitre plate assay, IC90 determination; assay type: cell-based; details: for IC90 (μg/ml) STA 29213: Staphylococcus aureus (ATCC29213)
Procedure: (§1) The bacteria used in this study were grown overnight in flasks containing 100 ml Mueller-Hinton Broth (Becton Dickinson—cat. no. 275730) in sterile de-ionized water, with shaking, at 37° C. Stocks (0.5 ml/tube) were stored at −70° C. until use. Bacteria titrations were performed in microtiter plates and colony forming units (CFUs) were determined. In general, an inoculum level of approximately 100 CFUs was used for susceptibility testing.
(§2) Flat-bottom, sterile 96-well plastic microtiter plates were filled with 180 μl of sterile deionized water, supplemented with 0.25% BSA. Subsequently, stock solutions (7.8× final test concentration) of compounds were added in 45 μl volumes in column 2. Serial five-fold dilutions (45 μl in 180 μl) were made directly in the microtiter plates from column 2 to reach column 11. Untreated control samples with (column 1) and without (column 12) inoculum were included in each microtiter plate. Depending on the bacteria type, approximately 10 to 60 CFU per well of bacteria inoculum (100 TCID50), in a volume of 100 μl in 2.8× Mueller-Hinton broth medium, was added to the rows A to H, except column 12. The same volume of broth medium without inoculum was added to column 12 in row A to H. The cultures were incubated at 37° C. for 24 hours under a normal atmosphere (incubator with open air valve and continuous ventilation). At the end of incubation, one day after inoculation, the bacterial growth was quantitated fluorometrically. Therefore resazurin (0.6 mg/ml) was added in a volume of 20 μl to all wells 3 hours after inoculation, and the plates were re-incubated overnight. A change in colour from blue to pink indicated the growth of bacteria. The fluorescence was read in a computer-controlled fluorometer (Cytofluor Biosearch) at an excitation wavelength of 530 nm and an emission wavelength of 590 nm. The % growth inhibition achieved by the compounds was calculated according to standard methods. The IC90 (expressed in μg/ml) was defined as the 90% inhibitory concentration for bacterial growth.

[2] = test system: SPN 6305 (Streptococcus pneumoniae (ATCC6305)); assay: Microtitre plate assay, IC90 determination; assay type: cell-based; details: for IC90 (μg/ml) SPN 6305: Streptococcus pneumoniae (ATCC6305)
Procedure: as §1, §2

SMILES	IC90 (μg/ml) STA 29213 [1]	IC90 (μg/ml) SPN 6305 [2]	IC90 ([1]; Staphylococcus aureus, ATCC29213, Staphylococcus aureus (ATCC29213), read-out: IC90 (μg/ml) STA 29213)	IC90 ([2]; Streptococcus pneumoniae, ATCC6305, Streptococcus pneumoniae (ATCC6305), read-out: IC90 (μg/ml) SPN 6305)
COc1nc2ccc(Cl)cc2cc1C(c1ccccc1)C(O)(CCCCN(C)C)c1ccc2ccccc2c1 (racemic) [Compound 79]	2.15 µg/mL (≈ 3.99 µM)	2.7 µg/mL (≈ 5.01 µM)	–	–
CCCCN(C)CCCCC(O)(c1ccccc1)C(c1ccccc1)c1cc2cc(Br)ccc2nc1OC (racemic) [Compound 92]	11.48 µg/mL (≈ 19.9 µM)	2.29 µg/mL (≈ 3.98 µM)	–	–
COc1nc2ccc(Br)cc2cc1C(c1ccccc1)C(O)(CCCCN1CCCC1)c1ccccc1 (racemic) [Compound 93]	11.16 µg/mL (≈ 19.9 µM)	9.95 µg/mL (≈ 17.8 µM)	–	–
COc1nc2ccc(Br)cc2cc1C(c1ccccc1)C(O)(CCCCN1CCCCC1)c1ccccc1 (racemic) [Compound 94]	4.06 µg/mL (≈ 7.08 µM)	1.81 µg/mL (≈ 3.16 µM)	–	–
COc1nc2ccc(Br)cc2cc1C(c1ccccc1)C(O)(CCCCN1CCCCC1)c1ccccc1 (racemic) [Compound 95]	10.2 µg/mL (≈ 17.8 µM)	2.28 µg/mL (≈ 3.98 µM)	–	–
COc1ccc(C(O)(CCCCN2CCCCC2)C(c2ccccc2)c2cc3cc(Br)ccc3nc2OC)cc1 (racemic) [Compound 97]	1.91 µg/mL (≈ 3.16 µM)	1.91 µg/mL (≈ 3.16 µM)	–	–
COc1nc2ccc(Br)cc2cc1C(c1ccccc1)C(O)(CCCCN1CCC(C)CC1)c1ccc2ccccc2c1 (racemic) [Compound 103]	1.8 µg/mL (≈ 2.82 µM)	0.4 µg/mL (≈ 0.627 µM)	–	–
COc1nc2ccc(Br)cc2cc1C(c1ccccc1)C(O)(CCCCN(C)C)CC(C)C (racemic) [Compound 117]	9.13 µg/mL (≈ 17.8 µM)	2.29 µg/mL (≈ 4.46 µM)	–	–
COc1nc2ccc(Br)cc2cc1C(c1ccccc1)C(O)(CCCCN(C)C)CC(C)C (racemic) [Compound 118]	8.14 µg/mL (≈ 15.9 µM)	5.14 µg/mL (≈ 10 µM)	–	–
COc1nc2ccc(Br)cc2cc1C(c1ccccc1)C(O)(CCCCN(C)C)CCC(C)C (racemic) [Compound 119]	18.72 µg/mL (≈ 35.5 µM)	4.19 µg/mL (≈ 7.94 µM)	–	–
COc1nc2ccc(Br)cc2cc1C(c1ccccc1)C(O)(CCCCN(C)C)CCC(C)C (racemic) [Compound 120]	8.36 µg/mL (≈ 15.8 µM)	10.53 µg/mL (≈ 20 µM)	–	–
COc1nc2ccc(Br)cc2cc1C(c1ccccc1)C(O)(CCCCN1CCCCC1)CC(C)C (racemic) [Compound 121]	8.77 µg/mL (≈ 15.8 µM)	1.96 µg/mL (≈ 3.54 µM)	–	–
CSc1nc2ccc(Br)cc2cc1C(c1ccccc1)C(O)(CCCCN(C)C)c1ccc2ccccc2c1 (single isomer, unassigned) [Compound 3]	60.0 µg/mL (≈ 100 µM)	60.0 µg/mL (≈ 100 µM)	–	–
COc1nc2cc(C)ccc2cc1C(c1ccccc1)C(O)(CCCCN(C)C)c1ccc2ccccc2c1 (single isomer, unassigned) [Compound 77]	1.84 µg/mL (≈ 3.55 µM)	1.84 µg/mL (≈ 3.55 µM)	–	–
COc1nc2cc(C)ccc2cc1C(c1ccccc1)C(O)(CCCCN(C)C)c1ccc2ccccc2c1 (single isomer, unassigned) [Compound 78]	1.84 µg/mL (≈ 3.55 µM)	–	–	–
COc1nc2ccc(Br)cc2cc1C(c1ccccc1)C(O)(CCCCN(C)C(C)C)c1ccccc1 (single isomer, unassigned) [Compound 88]	11.2 µg/mL (≈ 19.9 µM)	6.3 µg/mL (≈ 11.2 µM)	–	–
COc1nc2ccc(Br)cc2cc1C(c1ccccc1)C(O)(CCCCN(C)C(C)C)c1ccccc1 (single isomer, unassigned) [Compound 90]	2.24 µg/mL (≈ 3.99 µM)	2.51 µg/mL (≈ 4.47 µM)	–	–
COc1nc2ccc(Br)cc2cc1C(c1ccccc1)C(O)(CCCCN1CCCCC1)c1ccccc1 (single isomer, unassigned) [Compound 98]	1.81 µg/mL (≈ 3.16 µM)	2.04 µg/mL (≈ 3.56 µM)	–	–

SMILES	IC90 (μg/ml) STA 29213 [1]	IC90 (μg/ml) SPN 6305 [2]	IC90 ([1]; Staphylococcus aureus, ATCC29213, Staphylococcus aureus (ATCC29213), read-out: IC90 (μg/ml) STA 29213)	IC90 ([2]; Streptococcus pneumoniae, ATCC6305, Streptococcus pneumoniae (ATCC6305), read-out: IC90 (μg/ml) SPN 6305)
COc1nc2ccc(Br)cc2cc1C(c1ccccc1)C(O)(CCCCN1CCCCC1)c1ccccc1 (single isomer, unassigned) [Compound 99]	1.81 µg/mL (≈ 3.16 µM)	2.04 µg/mL (≈ 3.56 µM)	–	–
COc1nc2ccc(Br)cc2cc1C(c1ccccc1)C(O)(CCCCN1CCCCC1)c1ccccc1 (single isomer, unassigned) [Compound 100]	9.09 µg/mL (≈ 15.8 µM)	11.44 µg/mL (≈ 19.9 µM)	–	–
COc1nc2ccc(Br)cc2cc1C(c1ccccc1)C(O)(CCCCN1CCCCC1)c1ccccc1 (single isomer, unassigned) [Compound 101]	9.09 µg/mL (≈ 15.8 µM)	9.09 µg/mL (≈ 15.8 µM)	–	–
COc1nc2ccc(Br)cc2cc1C(c1ccccc1)C(O)(CCCCN1CCN(C)CC1)c1ccccc1 (single isomer, unassigned) [Compound 108]	8.31 µg/mL (≈ 14.1 µM)	2.34 µg/mL (≈ 3.98 µM)	–	–
COc1nc2ccc(Br)cc2cc1C(c1ccccc1)C(O)(CCCCN1CCN(C)CC1)c1ccccc1 (single isomer, unassigned) [Compound 109]	9.33 µg/mL (≈ 15.9 µM)	5.25 µg/mL (≈ 8.92 µM)	–	–
COc1nc2ccc(Br)cc2cc1C(c1ccccc1)C(O)(CCCCN1CCN(C)CC1)c1ccccc1 (single isomer, unassigned) [Compound 110]	9.33 µg/mL (≈ 15.9 µM)	4.68 µg/mL (≈ 7.95 µM)	–	–
COc1nc2ccc(Br)cc2cc1C(c1ccccc1)C(O)(CCCCN1CCN(C)CC1)c1ccccc1 (single isomer, unassigned) [Compound 111]	9.33 µg/mL (≈ 15.9 µM)	2.09 µg/mL (≈ 3.55 µM)	–	–
COc1nc2ccc(Br)cc2cc1C(c1ccccc1)C(O)(CCCCN1CCN(C)CC1)c1ccc2ccccc2c1 (single isomer, unassigned) [Compound 113]	14.3 µg/mL (≈ 22.4 µM)	2.54 µg/mL (≈ 3.98 µM)	–	–
COc1nc2ccc(Br)cc2cc1C(c1ccccc1)C(O)(CCCCN1CCOCC1)c1ccccc1 (single isomer, unassigned) [Compound 114]	–	7.25 µg/mL (≈ 12.6 µM)	–	–
COc1nc2ccc(Br)cc2cc1C(c1ccccc1)C(O)(CCCCN1CCOCC1)c1ccccc1 (single isomer, unassigned) [Compound 115]	–	2.29 µg/mL (≈ 3.98 µM)	–	–
COc1nc2ccc(Br)cc2cc1C(c1ccccc1)C(O)(CCCCN1CCOCC1)c1ccccc1 (single isomer, unassigned) [Compound 116]	5.76 µg/mL (≈ 10 µM)	2.04 µg/mL (≈ 3.54 µM)	–	–
COc1nc2ccc(Br)cc2cc1C(c1ccccc1)C(O)(CCCCN1CCCCC1)CCC(C)C (single isomer, unassigned) [Compound 123]	2.26 µg/mL (≈ 3.98 µM)	1.79 µg/mL (≈ 3.15 µM)	–	–
COc1nc2ccc(Br)cc2cc1C(c1ccccc1)C(O)(CCCCN1CCN(C)CC1)CCC1CCCCC1 (single isomer, unassigned) [Compound 125]	9.87 µg/mL (≈ 15.9 µM)	4.95 µg/mL (≈ 7.95 µM)	–	–
COc1nc2ccc(Br)cc2cc1C(c1ccccc1)C(O)(CCCCN(C)C)Cc1ccccc1 (single isomer, unassigned) [Compound 127]	1.73 µg/mL (≈ 3.16 µM)	1.73 µg/mL (≈ 3.16 µM)	–	–
COc1nc2ccc(Br)cc2cc1C(c1ccccc1)C(O)(CCCCN(C)C)Cc1ccccc1 (single isomer, unassigned) [Compound 128]	1.73 µg/mL (≈ 3.16 µM)	–	–	–
COc1nc2ccc(-c3cccnc3)cc2cc1C(c1ccccc1)C(O)(CCCCN(C)C)c1ccccc1 (centres unmarked) [Compound 43]	–	–	21.2 µg/mL (≈ 39.9 µM)	–
COc1nc2ccc(Br)cc2cc1C(c1ccccc1)C(O)(CCCCN(C)Cc1ccccc1)c1ccccc1 (centres unmarked) [Compound 60]	–	5.4 µg/mL (≈ 8.86 µM)	–	–
COc1nc2ccc(Br)cc2cc1C(c1ccccc1)C(O)(CCCCN(C)Cc1ccccc1)c1ccccc1 (centres unmarked) [Compound 61]	–	–	–	5.43 µg/mL (≈ 8.91 µM)
